System: dogs with chronic heart failure produced by multiple sequential intracoronary microembolizations
Assay: Hemodynamic measurements in dogs with chronic heart failure, 3 months oral therapy
Type: in vivo, dog
Source text: The following example examines the effects of ranolazine alone and in combination with an angiotensin converting enzyme (ACE) inhibitor and in combination with a beta-blocker on the progression of left ventricular (LV) dysfunction and LV chamber remodeling in dogs with chronic heart failure produced by multiple sequential intracoronary microembolizations.
Chronic LV dysfunction and failure in dogs was produced by multiple sequential intracoronary embolizations with polystyrene Latex microspheres (77-109 μm in diameter) as previously described by Sabbah et al. (1991) Am. J. Physiol. 260:H1379-H1384. Coronary microembolizations were performed during cardiac catheterization under general anesthesia and sterile conditions. Anesthesia was induced using a combination of intravenous injections of hydromorphone (0.22 mg/kg), diazepam (0.2-0.6 mg/kg) and sodium pentobarbital 50-100 mg to effect. Plane of anesthesia was maintained throughout the study using 1% to 2% isoflurane. Left and right heart catheterization was performed via a femoral arteriotomy and venotomy. After each catheterization, the vessels were repaired using 6-0 silk and the skin closed with 4-0 suture. Microembolizations were discontinued when LV ejection fraction, determined angiographically, was between 30% and 40%. A period of 2 weeks was allowed after the last embolization to ensure that infarctions produced by the last microembolizations have completely healed and heart failure was established. The study protocol was then performed.
Healthy, conditioned, purpose-bred mongrel dogs weighing between 19 and 25 kg.
A randomized, blinded, placebo controlled study design was used. A total of 28 dogs underwent multiple sequential intracoronary microembolizations as described above to produce chronic heart failure. Two weeks after the last embolization, dogs were randomized into 4 study groups (treatment arms). Dogs were randomized to 3 months oral therapy with ranolazine alone (375 mg, bid, n=7), ranolazine (375 mg bid) in combination with metoprolol tartrate (25 mg bid, n=7), ranolazine (375 mg bid) in combination with enalapril (10 mg bid, n=7), or placebo (ranolazine vehicle bid, n=7). Hemodynamic, angiographic, echocardiographic, Doppler and neurohumoral measurements were made prior to randomization (2 weeks after the last embolization) and after completion of therapy (3 months after initiating therapy). After completing the final hemodynamic and angiographic study, dogs were euthanized and the hearts removed and tissue prepared and saved for future histological and biochemical evaluations. The study primary and secondary end-points were as follows:
All hemodynamic measurements were made during left and right heart catheterizations in anesthetized dogs. Baseline measurements, prior to any microembolizations, were be made to ensure that all hemodynamic parameters are within normal limits. Abnormal dogs were excluded from the study. The following parameters were measured in all dogs at all three study time periods: heart rate, mean aortic pressure, peak rate of change of LV pressure during isovolumic contraction (peak+dP/dt) and relaxation (peak−dP/dt), and LV end-diastolic pressure.
To ensure that all study measures were similar at baseline, comparisons were made between all 4 study groups before any embolizations and at the time of randomization before initiation of therapy. For these comparisons, a one way analysis of variance (ANOVA) was used with a set at 0.05. If significance was attained, then group wise comparisons were made using the Student-Newman-Kuels test with significance set at p≦0.05. Within group comparisons between pre-treatment and post-treatment measures were made using a Students paired t-test with p<0.05 considered significant. To assess treatment effect, the change (Δ) in each measure from pre-treatment to post-treatment was calculated for each of the 4 study arms. […]

[1] = POST: after 3 months of oral therapy bid, mean±SEM
[2] = PRE: at time of randomization, before therapy, mean±SEM
[3] = change from pre-treatment to post-treatment (3 months), mean±SEM

COc1ccccc1OCC(O)CN1CCN(CC(=O)Nc2c(C)cccc2C)CC1 (racemic) [RAN Alone, (±)-N-(2,6-dimethylphenyl)-4-[2-hydroxy-3-(2-methoxyphenoxy)-propyl]-1-piperazineacetamide]
+dP/dt = peak LV +dP/dt [1]: 1416 ± 124 mmHg/sec | HR = heart rate [1]: 80 ± 4 beats/min | LVEDP = LV end-diastolic pressure [1]: 10 ± 1 mmHg | mAoP = mean aortic pressure [1]: 81 ± 7 mmHg | −dP/dt = peak LV −dP/dt [1]: 1460 ± 134 mmHg/sec | +dP/dt = peak LV +dP/dt [2]: 1253 ± 119 mmHg/sec | HR = heart rate [2]: 77 ± 2 beats/min | LVEDP = LV end-diastolic pressure [2]: 14 ± 1 mmHg | mAoP = mean aortic pressure [2]: 72 ± 3 mmHg | −dP/dt = peak LV −dP/dt [2]: 1254 ± 74 mmHg/sec | LV end-diastolic pressure, intra-group comparison pre- vs post-treatment (at the end of 3 months of treatment): decreased significantly | Δ +dP/dt (peak LV +dP/dt) [3]: 163 ± 81 mmHg/sec | Δ HR (heart rate) [3]: 3.3 ± 4.9 beats/min | Δ LVEDP (LV end-diastolic pressure) [3]: −4.4 ± 1.1 mmHg | Δ mAoP (mean aortic pressure) [3]: 9.1 ± 6.9 mmHg | Δ −dP/dt (peak LV −dP/dt) [3]: 206 ± 109 mmHg/sec
